Measurements reported in US8614327B2 (Vertex Pharmaceuticals Incorporated, priority 2004, dated 2013).

Molecular target: T1, ΔF508-CFTR (Homo sapiens, UniProt P13569, DEL508-508)
T1 construct: expressed in transfected cells
Assay: Membrane potential optical (FRET/VIPR) assay, identification of potentiator compounds
Assay type: cell-based
Conditions: Table 3, assay not given; for % Activity: relative efficacy
Method in brief: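 Double-addition potentiator screen: compound delivered in gluconate-substituted Cl^--free medium, membrane potential followed via CC2-DMPE/DiSBAC2(3) FRET on VIPR. Cells were ΔF508-CFTR-expressing NIH3T3 mouse fibroblasts, held 2 h at 37° C. then 24 h at 27° C. before assay.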

T1 sequence (P13569 with tags, fused parts or gaps DEL508-508): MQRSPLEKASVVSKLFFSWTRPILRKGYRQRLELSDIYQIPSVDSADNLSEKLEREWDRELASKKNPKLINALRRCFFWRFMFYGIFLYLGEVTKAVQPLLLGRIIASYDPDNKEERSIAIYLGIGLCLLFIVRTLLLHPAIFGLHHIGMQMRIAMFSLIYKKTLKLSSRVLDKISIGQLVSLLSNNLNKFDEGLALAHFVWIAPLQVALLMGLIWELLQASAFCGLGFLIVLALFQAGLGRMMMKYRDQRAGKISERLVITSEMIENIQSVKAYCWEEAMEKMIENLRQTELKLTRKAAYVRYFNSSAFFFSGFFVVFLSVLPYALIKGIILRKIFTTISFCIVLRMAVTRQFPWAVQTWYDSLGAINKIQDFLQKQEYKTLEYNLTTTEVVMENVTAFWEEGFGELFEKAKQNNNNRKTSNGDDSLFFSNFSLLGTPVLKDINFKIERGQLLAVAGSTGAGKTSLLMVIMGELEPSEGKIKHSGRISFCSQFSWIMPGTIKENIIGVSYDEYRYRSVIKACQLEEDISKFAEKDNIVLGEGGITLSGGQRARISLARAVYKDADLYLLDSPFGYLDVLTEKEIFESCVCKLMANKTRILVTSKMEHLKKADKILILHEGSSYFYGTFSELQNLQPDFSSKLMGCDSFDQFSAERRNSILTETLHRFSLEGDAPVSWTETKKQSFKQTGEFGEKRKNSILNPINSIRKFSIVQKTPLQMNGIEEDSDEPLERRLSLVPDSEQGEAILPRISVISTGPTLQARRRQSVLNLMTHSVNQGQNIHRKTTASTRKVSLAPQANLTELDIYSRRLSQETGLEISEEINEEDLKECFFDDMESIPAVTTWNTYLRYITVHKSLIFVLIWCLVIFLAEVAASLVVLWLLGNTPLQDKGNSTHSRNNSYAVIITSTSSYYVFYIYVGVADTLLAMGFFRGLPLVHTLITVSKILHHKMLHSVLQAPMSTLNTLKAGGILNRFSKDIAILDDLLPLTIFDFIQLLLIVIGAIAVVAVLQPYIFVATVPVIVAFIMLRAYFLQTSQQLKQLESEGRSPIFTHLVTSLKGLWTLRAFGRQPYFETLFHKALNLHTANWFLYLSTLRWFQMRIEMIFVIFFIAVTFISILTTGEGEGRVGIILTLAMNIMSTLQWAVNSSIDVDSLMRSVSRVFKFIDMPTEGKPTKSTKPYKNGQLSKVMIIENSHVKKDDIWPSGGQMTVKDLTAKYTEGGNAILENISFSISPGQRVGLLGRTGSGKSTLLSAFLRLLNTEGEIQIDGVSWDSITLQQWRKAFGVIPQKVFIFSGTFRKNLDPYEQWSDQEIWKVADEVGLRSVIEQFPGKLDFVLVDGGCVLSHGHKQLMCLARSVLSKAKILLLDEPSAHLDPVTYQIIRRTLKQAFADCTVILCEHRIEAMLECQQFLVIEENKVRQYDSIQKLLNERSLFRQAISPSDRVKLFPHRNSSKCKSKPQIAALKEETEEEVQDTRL

Compound	% Activity	EC50 [µM]
CCCOC(=O)NCC(C)(C)c1ccc(NC(=O)c2c[nH]c3ccccc3c2=O)cc1 [Compound 416, [2-methyl-2-[4-[(4-oxo-1H-quinolin-3-yl)carbonylamino]phenyl]-propyl]aminoformic acid propyl ester]	++ (between 25% to 100%)	< 10
CC(=O)Nc1cccc(NC(=O)c2c[nH]c3ccccc3c2=O)c1 [Compound 419, N-(3-acetylaminophenyl)-4-oxo-1H-quinoline-3-carboxamide]	+ (<25%)	25 to 60
CC(C)(C)c1cc(C(C)(C)C)c(NC(=O)c2c[nH]c3cc(OC(F)(F)F)ccc3c2=O)cc1O [Compound 694, N-(5-hydroxy-2,4-ditert-butyl-phenyl)-4-oxo-7-(trifluoromethoxy)-1H-quinoline-3-carboxamide]	++ (between 25% to 100%)	< 10
O=C(Nc1ccccn1)c1c[nH]c2ccccc2c1=O [Compound 155, 4-oxo-N-(2-pyridyl)-1H-quinoline-3-carboxamide]	+ (<25%)	25 to 60
COC(=O)[C@@H]1[C@H]2C[C@H]2CN1c1ccc(NC(=O)c2c[nH]c3ccccc3c2=O)c(C(F)(F)F)c1 [Compound 531, (1S,2S,5R)-methyl 3-(4-(4-oxo-1,4-dihydroquinoline-3-carboxamido)-3-(trifluoromethyl)phenyl)-3-azabicyclo[3.1.0]hexane-2-carboxylate]	++ (between 25% to 100%)	< 10
CC(C)(C)c1ccc(NC(=O)c2c[nH]c3cccc(O)c3c2=O)cc1O [Compound 633, 5-hydroxy-N-(3-hydroxy-4-tert-butyl-phenyl)-4-oxo-1H-quinoline-3-carboxamide]	++ (between 25% to 100%)	< 10
CC(C)(C)c1cc2cc[nH]c2cc1NC(=O)c1c[nH]c2ccc(S(=O)(=O)N3CCCC3)cc2c1=O [Compound 274, 4-oxo-6-pyrrolidin-1-ylsulfonyl-N-(5-tert-butyl-1H-indol-6-yl)-1H-quinoline-3-carboxamide]	++ (between 25% to 100%)	< 10
O=C(Nc1ccc(C(F)(F)F)c(O)c1)c1c[nH]c2cccc(O)c2c1=O [Compound 700, 5-hydroxy-N-[3-hydroxy-4-(trifluoromethyl)phenyl]-4-oxo-1H-quinoline-3-carboxamide]	++ (between 25% to 100%)	< 10
CCCOc1ccc(N)cc1NC(=O)c1c[nH]c2ccccc2c1=O [Compound 17, N-(5-Amino-2-propoxy-phenyl)-4-oxo-1H-quinoline-3-carboxamide]	++ (between 25% to 100%)	< 10
CC(C)N1CCN(c2ccc(NC(=O)c3c[nH]c4ccccc4c3=O)c(C(F)(F)F)c2)CC1 [Compound 639, N-[4-(4-isopropylpiperazin-1-yl)-2-(trifluoromethyl)phenyl]-4-oxo-1H-quinoline-3-carboxamide]	++ (between 25% to 100%)	< 10
O=C(Nc1ccc2cc(C(F)(F)F)[nH]c2c1)c1c[nH]c2ccccc2c1=O [Compound 537, 4-oxo-N-[2-(trifluoromethyl)-1H-indol-6-yl]-1H-quinoline-3-carboxamide]	++ (between 25% to 100%)	< 10
CN(C)c1cccc(NC(=O)c2c[nH]c3ccccc3c2=O)c1 [Compound 418, N-(3-dimethylaminophenyl)-4-oxo-1H-quinoline-3-carboxamide]	++ (between 25% to 100%)	10 to 25

Other lines, results leading:

% Activity	EC50 [µM]	Compound
++ (between 25% to 100%)		Nc1cc(Cl)cc(NC(=O)c2c[nH]c3ccccc3c2=O)c1 [Compound 131, N-(3-amino-5-chloro-phenyl)-4-oxo-1H-quinoline-3-carboxamide]
+ (<25%)	10 to 25	CC(=O)N1CCc2ccc(NC(=O)c3c[nH]c4ccccc4c3=O)cc21 [Compound 233, N-(1-acetylindolin-6-yl)-4-oxo-1H-quinoline-3-carboxamide]
++ (between 25% to 100%)	< 10	CC(C)(C)c1ccc(NC(=O)c2c[nH]c3ccccc3c2=O)cc1C#N [Compound 13, N-(3-cyano-4-tert-butyl-phenyl)-4-oxo-1H-quinoline-3-carboxamide]
++ (between 25% to 100%)	< 10	Nc1cc(NC(=O)c2c[nH]c3ccccc3c2=O)cc(C(F)(F)F)c1 [Compound 429, N-[3-amino-5-(trifluoromethyl)phenyl]-4-oxo-1H-quinoline-3-carboxamide]
++ (between 25% to 100%)	< 10	O=C(Nc1ccccc1-c1cc2ccccc2s1)c1c[nH]c2ccccc2c1=O [Compound 172, N-(2-(benzo[b]thiophen-2-yl)phenyl)-1,4-dihydro-4-oxoquinoline-3-carboxamide]
+ (<25%)	< 10	Cc1cccc2c(=O)c(C(=O)Nc3cc(O)c(C(C)(C)C)cc3C(C)(C)C)c[nH]c12 [Compound 621, N-(5-hydroxy-2,4-ditert-butyl-phenyl)-8-methyl-4-oxo-1H-quinoline-3-carboxamide]
++ (between 25% to 100%)	< 10	COc1ccc2[nH]cc(C(=O)Nc3ccc(N4[C@H](C)CC[C@H]4C)cc3C(F)(F)F)c(=O)c2c1 [Compound 685, N-(4-((2R,5R)-2,5-dimethylpyrrolidin-1-yl)-2-(trifluoromethyl)phenyl)-6-methoxy-4-oxo-1,4-dihydroquinoline-3-carboxamide]
++ (between 25% to 100%)	< 10	O=C(Nc1ccccc1N1CCCC1)c1c[nH]c2ccccc2c1=O [Compound 295, 4-oxo-N-(2-pyrrolidin-1-ylphenyl)-1H-quinoline-3-carboxamide]
++ (between 25% to 100%)		CS(=O)(=O)Nc1cccc(NC(=O)c2c[nH]c3ccccc3c2=O)c1 [Compound 214, N-(3-methylsulfonylaminophenyl)-4-oxo-1H-quinoline-3-carboxamide]
++ (between 25% to 100%)	< 10	O=C(Nc1ccccc1-c1ccccc1C(F)(F)F)c1c[nH]c2ccccc2c1=O [Compound 11, 4-oxo-N-[2-[2-(trifluoromethyl)phenyl]phenyl]-1H-quinoline-3-carboxamide]
+ (<25%)	25 to 60	COc1cc(C#N)c(NC(=O)c2c[nH]c3ccccc3c2=O)cc1OC [Compound 106, N-(2-cyano-4,5-dimethoxy-phenyl)-4-oxo-1H-quinoline-3-carboxamide]
++ (between 25% to 100%)	< 10	O=C(Nc1ccc(OC(F)(F)F)c(N2CCCCC2)c1)c1c[nH]c2ccccc2c1=O [Compound 696, 4-oxo-N-[3-(1-piperidyl)-4-(trifluoromethoxy)phenyl]-1H-quinoline-3-carboxamide]
++ (between 25% to 100%)	< 10	CC(C)(C)c1cc2cc[nH]c2cc1NC(=O)c1c[nH]c2cc(F)c(F)cc2c1=O [Compound 646, 6,7-difluoro-4-oxo-N-(5-tert-butyl-1H-indol-6-yl)-1H-quinoline-3-carboxamide]
+ (<25%)	10 to 25	CC(C)(C)c1cc2cc[nH]c2cc1NC(=O)c1c[nH]c2c(C(F)(F)F)cccc2c1=O [Compound 559, 4-oxo-N-(5-tert-butyl-1H-indol-6-yl)-8-(trifluoromethyl)-1H-quinoline-3-carboxamide]
